Test results: patent US20230287003A1, “BCL6 INHIBITORS” (Cancer Research Technology Limited, priority 2018, published 2023)

Tests used:
[1] = biological target: human BCL6 BTB domain (Trx-6×His-BCL6) / BCOR-AF633 peptide (Homo sapiens (Human), UniProt P41182); test: HTRF assay; format: binding; conditions: 1 nM Trx-6×His-BCL6, 300 nM BCOR-AF633 peptide, 2 hours incubation
Protocol: The % inhibition at each concentration was calculated by normalising FRET ratio to the appropriate high (DMSO with all reagents) and low (DMSO without BCL6) controls.

[2] = biological target: endogenous BCL6 protein in SUDHL-4 cells (Homo sapiens (Human), UniProt P41182); test: Immunofluorescence-based BCL6 degradation assay (SUDHL4); format: cell-based; conditions: 2 hours with compound, DC50 = concentration at which 50% of endogenous BCL6 protein is degraded
Protocol: DC50 values (compound concentration at which 50% of endogenous BCL6 protein is degraded) were determined in SUDHL-4 cells (American Type Culture Collection) in an immunofluorescence-based assay using an InCell2200 high content imaging system (GE Healthcare). Briefly, 40 μL of lymphoma suspension cells cultured in RPMI 1640-10% FBS (Sigma-Aldrich or PAN Biotech UK Ltd) were platted on fibronectin (Sigma catalogue F1141)-coated 384 well Cell Carrier Ultra plate (Perkin Elmer catalogue 6057300) at 1.2 104 cells/well. After 20 hours cell culture at 37° C./CO2 incubator, compounds were dispensed in the cell culture plate using ECHO550 acoustic dispenser (Labcyte, Inc.), as 8 point-concentration response (ranging from 5 nM to 10 μM) in 0.67% final DMSO concentration. Cells were incubated with compound for 2 hours at 37° C./CO2 incubator followed by fixation in 4.5% formaldehyde (37% formaldehyde solution, Sigma catalogue F8775) at room temperature for 15 min. After fixing, cells were washed in 1×TBS (Tris Buffer Saline) using a Power Washer 384 (Tecan Group Ltd). Blocking and cell permeabilisation were performed by incubating the fixed cells for 1 hour at room temperature in 1×TBS, 5% BSA, 1% Triton X100, followed by three washes on PW384 plate washer. Primary and secondary antibodies were prepared in 1×TBS, 1% BSA, 0.2% Triton X100. BCL6 expression was detected by incubating the cells for 1 h 30 with BCL6 rabbit polyclonal antibody (Sigma Catalogue HPA004899) at 1:250, 0.8 μg/ml, followed by 1 hour in chicken anti-Rabbit Alexa 488 conjugated antibody (Life Technology) at 1:500. After incubation in each antibody, cells were washes four times in 1×TBS-0.05% tween on PW384 plate washer. Cells were finally incubated for 60 min with nuclear staining RedDot2 dye (Biotium) at 0.5× the stock concentration in 1×TBS. BCL6 expression in the absence or presence of compound was detected on InCell2200 with 20× objective and quantified on InCell Analyser 3.7.2 workstation (GE Healthcare). The % response at each concentration was calculated by normalising BCL6 expression in the presence of compound to the appropriate high (DMSO) and low (DMSO with 7 μM of a control compound (5-((5-chloro-2-((3R,5S)-4,4-difluoro-3,5-dimethylpiperidin-1-yl)pyrimidin-4-yl)amino)-3-(3-hydroxy-3-methylbutyl)-1-methyl-1,3-dihydro-2H-benzo[d]imidazol-2-one)) controls.

[3] = biological target: BCL6-NCOR2(SMRT) corepressor protein-protein interaction (Homo sapiens (Human), UniProt P41182); test: NanoBRET cell assay; format: cell-based; conditions: read-out: NanoBRET cell avg pIC50 (converted)
From the text: At 20 hr post-transfection, cells were collected, washed with PBS, and exchanged into media containing phenol red-free OptiMEM+4% FBS (Life Technology).

Compound	HTRF avg pIC50 (1 nM) [1]	SUDHL4 avg pDC50 [2]	IC50 [3]
(R)-10-((5-chloro-2-((3R,5S)-3-hydroxy-5- methylpiperidin-1-yl)pyrimidin-4-yl)amino)-2-cyclopropyl-7- methyl-1,2,3,4-tetrahydro-[1,4]oxazepino[2,3-c]quinolin-6(7H)-one or (R)-10-((5-chloro-2-((3S,5R)-3-hydroxy-5-methylpiperidin-1- yl)pyrimidin-4-yl)amino)-2-cyclopropyl-7-methyl-1,2,3,4-tetrahydro- [1,4]oxazepino[2,3-c]quinolin-6(7H)-one: formic acid (1:2) [Example 12c]	8.01	7.83	
C[C@@H]1CN(c2ncc(Cl)c(Nc3ccc4c(c3)c3c(c(=O)n4C)OCC[C@H](C)N3)n2)C[C@H](C)C1(F)F [Example 5f, (S)-10-((5-chloro-2-((3S,5R)-4,4-difluoro-3,5-dimethylpiperidin-1-yl)pyrimidin-4-yl)amino)-2,7-dimethyl-1,2,3,4-tetrahydro-[1,4]oxazepino[2,3-c]quinolin-6(7H)-one]	6.07	6.63	6.17 µM
C[C@@H]1CN(c2ncc(Cl)c(Nc3ccc4c(c3)c3c(c(=O)n4C)C(=O)OC[C@H](C)N3)n2)C[C@H](C)C1(F)F [Example 8c, (S)-10-((5-chloro-2-((3S,5R)-4,4-difluoro-3,5-dimethylpiperidin-1-yl)pyrimidin-4-yl)amino)-2,7-dimethyl-2,3-dihydro-[1,4]oxazepino[6,5-c]quinoline-5,6(1H,7H)-dione]	6.80	6.78	17.8 µM
C[C@@H]1CN(c2ncc(Cl)c(Nc3ccc4[nH]c(=O)c5c(c4c3)N[C@@H](C3CC3)CCO5)n2)C[C@H](C)C1(F)F [Example 5p, (R)-10-((5-chloro-2-((3S,5R)-4,4-difluoro-3,5-dimethylpiperidin-1-yl)pyrimidin-4-yl)amino)-2-cyclopropyl-1,2,3,4-tetrahydro-[1,4]oxazepino[2,3-c]quinolin-6(7H)-one]	6.24	6.87	
C[C@@H]1C[C@H](C)CN(c2ncc(Cl)c(Nc3ccc4c(c3)c3c(c(=O)n4C)OCC[C@H](C)N3)n2)C1 [Example 5e, (S)-10-((5-chloro-2-((3R,5S)-3,5-dimethylpiperidin-1-yl)pyrimidin-4-yl)amino)-2,7-dimethyl-1,2,3,4-tetrahydro-[1,4]oxazepino[2,3-c]quinolin-6(7H)-one]	6.18	6.22	5.25 µM
C[C@@H]1CN(c2ncc(Cl)c(Nc3ccc4c(c3)c3c(c(=O)n4C)OCC[C@H](C4CC4)N3)n2)C[C@H](C)C1(F)F [Example 5i, (R)-10-((5-chloro-2-((3S,5R)-4,4-difluoro-3,5-dimethylpiperidin-1-yl)pyrimidin-4-yl)amino)-2-cyclopropyl-7-methyl-1,2,3,4-tetrahydro-[1,4]oxazepino[2,3-c]quinolin-6(7H)-one]	6.70	6.79	
Cn1c(=O)c2c(c3cc(Nc4nc(N5CCC(F)(F)CC5)ncc4Cl)ccc31)N[C@@H](C1CC1)CCO2 [Example 5m, (R)-10-((5-chloro-2-(4,4-difluoropiperidin-1-yl)pyrimidin-4-yl)amino)-2-cyclopropyl-7-methyl-1,2,3,4-tetrahydro-[1,4]oxazepino[2,3-c]quinolin-6(7H)-one]	6.93	6.84	
C[C@@H]1C[C@H](C)CN(c2ncc(Cl)c(Nc3ccc4c(c3)c3c(c(=O)n4C)C(=O)OC[C@H](C)N3)n2)C1 [Example 8g, (S)-10-((5-chloro-2-((3R,5S)-3,5-dimethylpiperidin-1-yl)pyrimidin-4-yl)amino)-2,7-dimethyl-2,3-dihydro-[1,4]oxazepino[6,5-c]quinoline-5,6(1H,7H)-dione]	6.55	6.50	13.5 µM
C[C@@H]1CN(c2ncc(Cl)c(Nc3cnc4c(c3)c3c(c(=O)n4C)OCC[C@H](C4CC4)N3)n2)C[C@H](C)C1(F)F [Example 5t, (R)-10-((5-chloro-2-((3S,5R)-4,4-difluoro-3,5-dimethylpiperidin-1-yl)pyrimidin-4-yl)amino)-2-cyclopropyl-7-methyl-1,2,3,4-tetrahydro-[1,4]oxazepino[2,3-c][1,8]naphthyridin-6(7H)-one]	6.61	6.54	
